Measured values as given in a melting point compilation (Tetko et al.).

| SMILES | melting point |
| --- | --- |
| COC(=O)c1ccccc1S(=O)(=O)NC(=O)Nc1nc(C)nc(OC)n1 | 162 °C |
| Cc1cc(C(=O)Cl)nn1C | 73 to 74 °C |
| N#Cc1c(F)c(F)c(F)c(F)c1C#N | 83 °C |
| CC(C)NCC(O)c1ccc([N+](=O)[O-])cc1 (stereo not given) | 98 °C |
| CSCCC(NC(=O)c1cccnc1SC)C(=O)O (stereo not given) | 157 to 161 °C |
| Cc1ccc(C)c(N2CCNCC2)c1 | 45 °C |
| CC(=O)Oc1ccc2c3c1OC1C(OC(C)=O)C=CC4C(C2)N(C)CCC341 (stereo not given) | 173 °C |
| CCC(C)(O)CNC1C2CCC(C)(C1O)C2(C)C (stereo not given) | 119 °C |
| CNC(=O)ON=C(C)SC | 78 °C |
| CCO[Si](Cl)(Cl)Cl | -135 °C |
| CC(C)=CCCC=C(C)C | -74.4 °C |
| O=C(O)c1ccc(-c2ccccc2)nc1 | 243 to 245 °C |
| COc1cc(OC)nc(NC(=O)NS(=O)(=O)c2ncccc2C(=O)N(C)C)n1 | 145 °C |
| O=[N+]([O-])c1ccc(S(=O)(=O)N2CCOCC2)cc1 | 173 to 175 °C |
| CCOC(=O)c1ccccc1C(=O)OCC | -40.5 °C |
| CCCNC(=O)NNC(=O)OCC | 95 °C |
| NC(=O)N1c2ccccc2C=Cc2ccccc21 | 190 °C |
| CC(NC(=O)C(C(F)(F)F)C(F)(F)F)c1ccccc1 (stereo not given) | 137 °C |

| SMILES | melting point |
| --- | --- |
| CC(=O)N(Nc1ccccc1)c1ccc(N=Nc2ccccc2)cc1 | 186 °C |
| Cc1ccc(C=CC(=O)c2cccc([N+](=O)[O-])c2)cc1 | 143 to 146 °C |
| CN(C)c1ccc(C=C(C#N)c2ccc(Cl)c(Cl)c2)cc1 | 213 to 214 °C |
| CCOP(=S)(S)OCC | -10 °C |
| FC(F)(F)c1ccc(N2CCOCC2)c(Br)c1 | 50 to 52 °C |
| CNC(=O)ON=C(C)C(C)S(C)(=O)=O (stereo not given) | 87 °C |
| CCSC(SCC)C(O)C(O)C(O)C(O)CO (stereo not given) | 140 to 142 °C |
| CCCC(=O)Cl | -89 °C |
| CC(=O)OC1CCC2C3CCC4CC(C#Cc5ccccc5)(OC(C)=O)CCC4(C)C3CCC12C (stereo not given) | 100 to 111 °C |
| ClC(COCC(Cl)C(Cl)(Cl)Cl)C(Cl)(Cl)Cl (stereo not given) | -50 °C |
| N#Cc1cccnc1Cl | 107 to 109 °C |
| Nc1ncccc1I | 90 °C |
| NC(=O)C1=CN(C2OC(COP(=O)(O)OP(=O)(O)OCC3OC(n4cnc5c(N)ncnc54)C(O)C3O)C(O)C2O)C=CC1 (stereo not given) | 141 °C |
| CC(=O)C(C(C)=O)=C1SC2=C(C(=O)c3ccccc3C2=O)N1c1ccccc1 | 254 °C |
| O=C(C=Cc1ccc(Cl)cc1)c1ccc(Cl)cc1 | 158 °C |
| ClCC1C(CCl)C2(Cl)C(Cl)=C(Cl)C1(Cl)C2(Cl)Cl (stereo not given) | 105 °C |
| Cc1cc(N(C)C)ccc1N=Nc1ccccc1 | 68 °C |
| C=CCC1(CC(C)O)C(=O)NC(=O)NC1=O (stereo not given) | 158 °C |

The remaining lines, values ahead:

| melting point | SMILES |
| --- | --- |
| 91 to 95 °C | CC(=O)Oc1cc(OC(C)=O)cc(C(C)=O)c1 |
| 20 °C | Cc1ccc2c(c1)CCC(C)C2 (stereo not given) |
| 223 °C | Cc1c(Cl)c(C)c(Cl)c(Cl)c1Cl |
| 296 °C | CC1(C(=O)O)CCC2(C)CCC3(C)C(=CC(=O)C4C5(C)CCC(O)C(C)(C)C5CCC43C)C2C1 (stereo not given) |
| 200 °C | Cc1c(NN=C2C(=O)NN=C2c2c(O)c3ccccc3n(C)c2=O)c(=O)n(-c2ccccc2)n1C |
| -54.9 °C | CC(C)c1ccncc1 |
| 200 °C | Cc1[nH]c2ccccc2c1CC(=O)O |
| 110 to 111 °C | COC(=O)c1cc2cc(Br)ccc2s1 |
| 197 °C | O=C(O)c1cc2cc(OCc3ccccc3)ccc2[nH]1 |
| 91 to 92 °C | CCOC(=O)c1cnn(-c2ccc(N)cc2)c1C |
| 292 °C | Nc1c(Cl)cc(C(=O)O)cc1Cl |
| 169 °C | CCN1CCN(C(=O)NC(C(=O)NC2C(=O)N3C(C(=O)O)=C(CSc4nnnn4C)CSC23)c2ccc(O)cc2)C(=O)C1=O (stereo not given) |
| -30 °C | CCN(CC)CC(O)CO (stereo not given) |
| 37 to 39 °C | c1ccc(-c2cnco2)cc1 |
| 221 °C | CC#CCN1C(=O)c2ccccc2C1=O |
| 103 to 105 °C | CCOC(=O)C(C#N)=C(SC)Sc1ncccn1 |
| 175 °C | C#CC[C@H](NC(=O)OCC1c2ccccc2-c2ccccc21)C(=O)O |
| 92 °C | COC(=O)c1cc(C)on1 |
| 97 °C | CCCOC(=O)c1ccccc1O |
| 203 to 208 °C | Cc1ccc(S(=O)(=O)N[C@H](c2ccccc2)[C@H](NS(=O)(=O)c2ccc(C)cc2)c2ccccc2)cc1 |
| 42 to 44 °C | CCOC(=O)c1ccsc1N |
| 93.5 to 98 °C | COCCOc1ccc(CCC(=O)O)cc1N |
| 89 °C | O=C(O)c1ccc(OC(=O)c2ccccc2)cc1 |
| 185 °C | Nc1ccccc1-c1c(-c2ccccc2)noc1-c1ccccc1 |
| 73.2 to 73.9 °C | OCc1cc(F)cc2c1OCOC2 |
| 29 to 33 °C | CCCCCCCCCCCCCCCCCCN=C=S |
| 74 °C | CC12CCC(C(COC=O)C1=O)C2(C)C (stereo not given) |

| melting point | SMILES |
| --- | --- |
| 200 to 201 °C | CCC(/C(=N/Nc1ccc([N+](=O)[O-])cc1[N+](=O)[O-])c1ccc(OC)cc1)C1CCCCC1 (stereo not given) |
| 95 °C | CNc1ccc(C(=O)OC)cc1 |
| 71 °C | Cc1cc(C)c([N+](=O)[O-])cc1C |
| 153 °C | O=[N+]([O-])/C(Br)=C/c1cccc(/C=C(\Br)[N+](=O)[O-])c1 |
| 165 °C | N=c1oc2ccccc2cc1CSN |
| 262 to 263 °C | NC(Cc1ccc(Br)cc1)C(=O)O (racemic) |
| 164 to 167 °C | CCOC(=O)CCC(C)C1CCC2C3C(O)C(Br)C4CC(OC(C)=O)CCC4(C)C3CC(OC(C)=O)C12C (stereo not given) |
| 120 to 121 °C | Nc1n[nH]c(N)c1Cc1ccccc1Cl |
| -42.9 °C | CCCCCCCC(=O)OCCCC |
| 35 °C | CC(=O)OC1CCCCC1C(C)(C)C (stereo not given) |
| 53 to 55 °C | N#Cc1cc(C(F)(F)F)ccc1N1CCOCC1 |
| 227 to 229 °C | CC(CC(=O)O)c1ccc(C(=O)O)cc1 (stereo not given) |
| 167 to 169 °C | NC(=O)c1ccc2c(c1)OCO2 |
| 124 °C | OCc1ccc(O)cc1 |
| 175 °C | O=c1on(-c2ccccc2)cc1-c1ccccc1 |
| 87 °C | Cc1cc(C)c(CO)c(C)c1 |
| 198 °C | O=C(Nc1ccc([N+](=O)[O-])cc1)c1ccccc1 |
| 118 °C | Cc1cc(Cl)[nH]n1 |
| 104 to 106 °C | C=CCc1c(O)cccc1C=O |
| 202 °C | COc1ccc(-c2ccnc(S)n2)cc1 |
| 136 °C | O=P(N1CC1)(N1CC1)N(N=Cc1ccc(Cl)cc1)c1ccccc1 |
| 176 °C | CC(C)(C)N(NC(=O)c1ccccc1)C(=O)c1cccc(F)c1 |
| 171 °C | Cc1cc(C(F)(F)F)n2nc(N)c(/N=N/c3cccc(C(F)(F)F)c3)c2n1 |
| 75 °C | C=CCC(CC)(CC)C(N)=O |
| 195 °C | Nc1c(Br)cc(Br)cc1Cc1ccccc1 |
| 85 to 86 °C | COc1ccc(OC)c2ccccc12 |
| 178 °C | C(=N\CC/N=C/c1ccc2c(c1)OCO2)/c1ccc2c(c1)OCO2 |
